Values of other authors, collected in patent publication US8765470B2, “Reprogramming immortalized B-cells to induced pluripotent stem cells” (Cellular Dynamics International, Inc., priority 2010, dated 2014).

Legend:
EBV = conditions: Norseen et al., 2009
[1] = Kira et al., 2000
Epstein-Barr virus (EBV) = conditions: anti-EBV activity; Kira et al., 2000; read-out: 50% effective concentration
EBV replication = conditions: in vitro; Lin et al., 1983

SMILES | effect on EBV proliferation (EBV) | inhibition of EBV replication (EBV replication) | other results
CN(C)c1ccc(Nc2c3ccc(NC(=O)CCN4CCCC4)cc3nc3cc(NC(=O)CCN4CCCC4)ccc23)cc1 [BRACO-19] | block EBV proliferation |  | 
O=c1[nH]c(=O)n([C@@H]2CO[C@H](CO)O2)cc1I [beta-L-5-Iododioxolane uracil] |  |  | 50% cytotoxic concentration [1]: 1,000 microM; EC50 (Epstein-Barr virus (EBV)): 30 nM
C[n+]1cccc(-c2c3nc(c(-c4ccc[n+](C)c4)c4ccc([nH]4)c(-c4ccc[n+](C)c4)c4nc(c(-c5ccc[n+](C)c5)c5ccc2[nH]5)C=C4)C=C3)c1 [TMPyP3] | block EBV proliferation |  | 
Cc1cn([C@@H]2O[C@H](CO)[C@@H](O)[C@@H]2F)c(=O)[nH]c1=O [1-(2-deoxy-2-fluoro-beta-D-arabinofuranosyl)-5-methyluracil] |  | potent inhibitors | 
O=c1[nH]c(=O)n([C@H]2C[C@H](O)[C@@H](CO)O2)cc1/C=C/Br [E-5-(2-bromovinyl)-2′-deoxyuridine] |  | potent inhibitors | 
C[n+]1ccc(-c2c3nc(c(-c4cc[n+](C)cc4)c4ccc([nH]4)c(-c4cc[n+](C)cc4)c4ccc([nH]4)c(-c4cc[n+](C)cc4)c4nc2C=C4)C=C3)cc1 [TMPyP4] | block EBV proliferation |  | 
Nc1nc(=O)n([C@@H]2O[C@H](CO)[C@@H](O)[C@@H]2F)cc1I [1-(2-deoxy-2-fluoro-beta-D-arabinofuranosyl)-5-iodocytosine] |  | potent inhibitors | 
